Experimental data taken from patent US7928095B2, “Treatment of resistant or refractory cancers with multi-arm polymeric conjugates of 7-ethyl-10-hydroxycamptothecin” (Enzon Pharmaceuticals, Inc., priority 2007, dated 2011).

Legend:
[1] = tested on: Human HT-29 colorectal tumors; assay: Therapeutic efficacy in HT-29 colorectal tumor xenografted mice, second round treatment after CPT-11; type: in vivo, nude mice
Protocol: When tumors reached an average volume of 100 mm^3, mice were treated with CPT-11 (40 mg/kg/dose; q2d×4). Mice were monitored for tumor growth. […] One group was further treated with MTD of CPT-11 (40 mg/kg/dose; q2d×5) and the other group was treated with MTD of four-arm ^40KPEG-Gly-(7-ethyl-10-hydroxycamptothecin) (10 mg/kg/dose q2d×5) starting day 16. The drugs were administered intravenously via the tail vein.
The data in FIG. 2 represent mean±standard deviation (n=10).

[2] = tested on: refractory human HT-29 colorectal tumor; assay: Therapeutic efficacy in CPT-11 refractory human HT-29 colorectal tumor xenografted nude mice; type: in vivo
Protocol: Therapeutic efficacy of four-arm PET-Gly-(7-ethyl-10-hydroxycamptothecin) against a refractory human HT-29 colorectal tumor grown in nude mice was determined. […] When tumors reached an average volume of 100 mm^3, mice were treated with CPT-11 (40 mg/kg/dose; q2d×4). Mice were monitored for tumor growth. […] These mice were selected, randomized and divided into two groups. […] The drugs were administered intravenously via the tail vein.
The data in FIG. 1 represent mean±standard deviation (n=7).

[3] = tested on: CPT-refractory cell line (CEM/C2); conditions: CEM/C2 cells, 2 days at 37° C., MTS; FIG. 3
Protocol: CPT-refractory cell line (CEM/C2) and the corresponding non-refractory parent cell line (CEM) were treated with PEG-Gly-(7-ethyl-10-hydroxycamptothecin), 7-ethyl-10-hydroxycamptothecin, and CPT-11. The CEM/C2 and CEM were obtained from NCI. The CEM cell lines are acute lymphoblastic leukemia cell lines. The in vitro cytotoxicity of each drug was determined using a MTS assay. […] At the end of the incubation, MTS dye was added and incubated for 2 to 3 hours at 37° C. and formation of a colored product (formazan) was measured at 490 nm. The % viability at each drug concentration was calculated as [OD test samples−background]/[OD controls (no treatment)−background]. Sigmoidal dose response curves were generated by plotting Log (Drug) as a function of % viability (survival) and IC50 values were calculated using the GraphPad Prism software.

Molecule | tumor volume increased compared to day 1 ([1]; day 54, CPT-11 sensitive mice, second round treatment q2d×5 i.v. starting day 16) [%] | deaths recorded ([1]; on day 61) | mice with tumors <1,650 mm^3 ([2]; by day 72) [%] | tumor volume decreased compared to day 15 ([2]; day 42, CPT-11 refractory mice, 10 mg/kg/dose q2d×5 i.v. starting day 16) [%] | animals sacrificed ([2]; on day 63, n=7) | potency relative to CPT-11 (cytotoxicity IC50) [3] | animals sacrificed due to excessive tumor burden ([1]; as of day 61) [%] | animals sacrificed due to excessive tumor burden (>1,650 mm^3) ([2]; by day 42) [%] | animals sacrificed due to excessive tumor burden (>1,650 mm^3) ([2]; by day 54) [%]
four-arm ^40KPEG-Gly-(7-ethyl-10-hydroxycamptothecin) [compound 9] | 193 | No deaths | 58 | 25 | 1 of 7 | about 10 fold | – | – | –
CCc1c2c(nc3ccc(OC(=O)N4CCC(N5CCCCC5)CC4)cc13)-c1cc3c(c(=O)n1C2)COC(=O)[C@]3(O)CC [CPT-11, Irinotecan, reference compound] | – | – | – | – | – | – | 60 | 29 | 100
